Assay results published in US20140314676A1, “METHODS OF TREATMENT WITH DEFERIPRONE” (APOTEX TECHNOLOGIES INC., priority 2011, published 2014).
Entries after “also recorded” stand apart in the source; their conditions may differ.

Assays:
[1] = system: porcine model of myocardial infarction; assay: Porcine model of myocardial infarction (90 min LAD occlusion, reperfusion), pilot study monitored by MRI; assay type: in vivo; settings: for Ejection fraction (EF) / Vasodilatory dysfunction (remote myocardium T2) / Inflammation or edema (T2) / Ventricular volume (end-diastolic and end-systolic volumes): pigs N=2, oral 100 mg/kg daily; for Inflammation or edema (T2): infarct zone; for Ventricular volume (end-diastolic and end-systolic volumes): up to 4 weeks; for Hemorrhage (from T2* image): pigs N=2, oral pre-loading then 100 mg/kg daily, MRI day 2 to week 4
Protocol: Post-infarct remodeling is a complex process with various pathophysiological changes occurring simultaneously (19) whose inter-dependence has not been completely understood in vivo. An initial study was performed to assess evolution of: 1) edema (T2); 2) hemorrhage (T2*); 3) cardiac function; 4) infarct/MVO size and 5) vasodilatory function in a porcine model of myocardial infarction. The left anterior descending artery (LAD) was occluded for 90 min followed by reperfusion; this model consistently produced anteroseptal transmural infarcts characterized by MVO. Pattern of progression of edema, hemorrhage and infarct/MVO was apparent on T2-, T2*-maps and contrast-enhanced (CE) images as shown in a representative animal (FIG. 1). Post-infarct LV remodeling was monitored by observing the cumulative time course of quantitative MRI parameters (FIG. 2). […] Vasodilator function (or perfusion reserve) was evaluated with T2-based Blood-oxygen-level-dependent (BOLD) imaging using a pharmacological vasodilator (FIG. 4). […] The failure of remote vasodilatory function to regain control levels in the chronic phase of AMI potentially served as a predictor of subsequent adverse LV remodeling. […] Importantly, the evolution of MRI parameters was well correlated with histological features, similar to patterns seen in humans (24); this justified using a large animal model, e.g., porcine, for translation to the clinic. Two papers based on this work were published in MRM (32, 76).
Excess tissue iron accumulation can be lethal as free iron is toxic in nature. It has been speculated that iron chelation may be beneficial in acute coronary syndromes and that early treatment can limit ischemia-reperfusion injury and also reduce infarct size (83, 84). However, the role of iron chelation in hemorrhagic infarction has not yet been explored. In the present example, the cardioprotective properties of the iron chelating agent deferiprone (DFP) were explored in a porcine model of myocardial infarction. Deferiprone offered several advantages in that it is a very small molecule, both hydrophilic and lipophilic and highly membrane permeable; it can readily enter mitochondria and may access intracellular labile iron. In a pilot study, DFP was administered (orally) to pigs (N=2) a few hours before a 90 min LAD occlusion (pre-loading), and treatment was continued with a daily dose of 100 mg/kg (85). Animals were then monitored with a comprehensive MRI exam from day 2 to week 4. […] The result shown in FIG. 14 compared to FIG. 1 show the neutralizing capacity of DFP.

[2] = system: porcine model of myocardial infarction; assay: Hemorrhagic myocardial infarction in porcine model, remodeling monitored by CMR (Example 3); assay type: in vivo
Protocol: A quantitative study was done to investigate the effect of the deferiprone (DFP) on the hemorrhagic byproducts in tissue in a porcine model of myocardial infarction, and to monitor remodeling by cardiovascular magnetic resonance (CMR).
The study involved two groups of animals that were subjected to a 90 min balloon occlusion of the left anterior descending artery (LAD) followed by reperfusion—untreated (N=2) and DFP treated (N=2). DFP was administered (orally) a few hours (about 1-2 hours) before the procedure (pre-loading) and treatment was continued with a daily dose of 100 mg/kg. Imaging was performed on a 3T MRI scanner (MR 750, GE Healthcare) pre-AMI (healthy), day 2, week 1, week 2 and week 4 post-AMI. Edema was evaluated by T2 quantification using a T2-prepared spiral sequence and hemorrhage was identified by T2* using a multi-echo gradient-echo acquisition. Infarct assessment was performed by delayed hyperenhancement (DHE) using an IR-GRE sequence.

[3] = system: Langendorff heart preparation; settings: constant deferiprone infusion of 50 μM, ex vivo; cited from earlier work
porcine hearts [4] = assay: Artificially induced hemorrhage in porcine hearts by intracoronary injection of collagenase after 8 min ischemia; assay type: in vivo, Yorkshire pigs; settings: for Epicardial and intramyocardial hemorrhage: sacrifice at 24 hrs
Protocol: (§1) 21 Yorkshire pigs (19-31 kg) were included in the study and 7-9 ml phosphate-buffered solution containing collagenase was injected using an over-the-wire angioplasty balloon catheter that was advanced to mid LAD after 2nd diagonal branch; balloon inflation was maintained for 8 min (ischemia). Six doses (250, 600, 800, 1200, 1600, and 3200 mcg) of collagenase were administered in equally divided groups; there was no mortality attributable to collagenase infusion. Animals were sacrificed at 24 hrs and hearts were explanted for histological analysis. […] After establishing this model, a pilot study was initiated to artificially induce hemorrhage in one animal subjected to a 45 min LAD occlusion, which is inherently non-hemorrhagic. Collagenase was injected immediately after balloon deflation i.e. during reperfusion at an intermediate dose of 1000 mcg. […] This was unlike the untreated 45 min infarcts studied. Currently, the causality between hemorrhage and MVO is unknown. The blood spilt in the interstitium might have compressed the microvasculature that was already vulnerable due to the initial ischemic insult; in other words, hemorrhage may have created the MVO.

porcine hearts [5] = assay: Collagenase injection during reperfusion after 45 min LAD occlusion, MRI at day 2; assay type: in vivo, pig; settings: 1000 mcg during reperfusion, day 2 post-AMI, one animal
Protocol: as §1

[6] = 90 min LAD occlusion, listed as DFP, 100 mg/kg
[7] = DFP treated N=2, 100 mg/kg daily

**Q.** With `Cc1c(O)c(=O)ccn1C` [deferiprone] as the compound, how does the “Ejection fraction (EF)” value ([1]; 90 min LAD occlusion) read?
**A.** reduced gradually

**Q.** What about the “Vasodilatory dysfunction (remote myocardium T2)” value ([1]; 90 min LAD occlusion) of the same compound?
**A.** impaired vasodilatory function only at day 2

**Q.** What about the “Inflammation or edema (T2)” value ([1]; 90 min LAD occlusion, 100 mg/kg) of the same compound?
**A.** substantially subsided at week 4; also recorded: substantially subsided beyond week 2

**Q.** And the “Inflammation or edema (T2)” value [1, 6]?
**A.** substantially reduced by week 4

**Q.** What about the “Ventricular volume (end-diastolic and end-systolic volumes)” value ([1]; 90 min LAD occlusion) of the same compound?
**A.** Relatively unchanged

**Q.** And the “Ventricular volume (end-diastolic and end-systolic volumes)” value [1, 6]?
**A.** relatively unchanged

**Q.** And the “Ejection fraction (EF)” value [1, 6]?
**A.** gradually depressed by week 4

**Q.** What about the “Vasodilatory dysfunction (remote myocardium T2)” value [1, 6] of the same compound?
**A.** observed only at day 2

**Q.** And the “Hemorrhage (from T2* image)” value ([1]; 90 min LAD occlusion)?
**A.** observed only on day 2 but resolved by week 1; also recorded: only observed on day 2, which later resolved

**Q.** And the “Hemorrhage (from T2* image)” value ([1]; 90 min LAD occlusion, listed as DFP)?
**A.** observed only on day 2 and by week 1 it had completely resolved

**Q.** And the Side effects ([1]; pigs, oral 100 mg/kg daily, throughout the 4 weeks of observation)?
**A.** No side effects

**Q.** And the “Microvascular obstruction (MVO)” value ([1]; representative animal, 90 min LAD occlusion, seen on day 2)?
**A.** partially resolved by week 1

**Q.** And the “Ejection fraction (EF)” value [2, 7]?
**A.** depressed by week 4

**Q.** And the “End-diastolic and end-systolic volumes” value [2, 7]?
**A.** relatively unchanged

**Q.** And the “Inflammation and edema (T2)” value [2, 7]?
**A.** substantially reduced by week 4

**Q.** And the “Microvascular obstruction (MVO)” value ([2]; DFP treated N=2, 100 mg/kg daily, seen on day 2)?
**A.** partially resolved by week 1

**Q.** What about the “Hemorrhage (as indicated by T2* image)” value ([2]; DFP treated N=2, oral pre-loading then 100 mg/kg daily, 90 min LAD occlusion, listed as DFP) of the same compound?
**A.** observed only on day 2 and by week 1 it had completely resolved

**Q.** What about the Free radical activity [3] of the same compound?
**A.** reduction

**Q.** Which “Mortality attributable to collagenase infusion” value (porcine hearts [4]; 250-3200 mcg intracoronary, 21 pigs) does the source give for collagenase here?
**A.** no mortality

**Q.** And the “Epicardial and intramyocardial hemorrhage” value (porcine hearts [4]; 800-1600 mcg intracoronary)?
**A.** mild-moderate

**Q.** And the “Epicardial and intramyocardial hemorrhage” value (porcine hearts [4]; 3200 mcg intracoronary)?
**A.** severe

**Q.** And the “Infarction (histology)” value (porcine hearts [4]; intracoronary collagenase after 8 min ischemia)?
**A.** No infarction

**Q.** And the “Dose resulting in hemorrhage on explanted hearts” value (porcine hearts [4]; intracoronary, after 8 min ischemic episode)?
**A.** > 800 µg

**Q.** And the “Epicardial and intramyocardial hemorrhage” value (porcine hearts [4]; up to 600 mcg intracoronary)?
**A.** none or mild focal

**Q.** And the “Hemorrhage on T2*-weighted images” value (porcine hearts [5])?
**A.** Signal void

**Q.** And the “MVO on DHE images” value (porcine hearts [5])?
**A.** corresponded with an MVO

**Q.** And the “Hemorrhage on T2*-weighted images” value (porcine hearts [5]; listed as Collagenase)?
**A.** signal void

**Q.** What about the “MVO on DHE images” value (porcine hearts [5]; listed as Collagenase) of the same compound?
**A.** presence of MVO
